According to patent US11826402B2, “Combination therapy involving antibodies against claudin 18.2 for treatment of metastatic pancreatic adenocarcinoma” (Astellas Pharma Inc., priority 2013, dated 2023):

Experiments:
[1] = system: HPAFII; experiment: IMAB362-mediated ADCC assay; type: cell-based, human; settings: at least 2 donors
[2] = system: CFPAC1; experiment: IMAB362-mediated ADCC assay; type: cell-based, human; settings: at least 2 donors
[3] = system: DANG xenografts; experiment: Subcutaneous DANG xenograft treatment; type: in vivo, mice; settings: low CLDN18.2 expressing DANG xenografts
[4] = Phase I clinical study, single intravenous administration; type: in vivo, human
Excerpt: IMAB362 is in early clinical testing. A phase I clinical study has been conducted in human. […] In an ongoing phase IIa clinical study IMAB362 is given repetitively.

[5] = system: Panc01; experiment: IMAB362-mediated ADCC assay; type: cell-based, human; settings: at least 2 donors
[6] = system: BxPC3-CLDN18; experiment: IMAB362 mediated apoptosis of gemcitabine treated pancreas tumor cells; type: cell-based, human; settings: BxPC3-CLDN18, medium or 100 ng/ml gemcitabine, after 48 hours
Experimental: BxPC3-CLDN18 were cultivated in medium or medium+100 ng/ml gemcitabine. Apoptotic cell fraction of […] were shifted. Similar shifts were obtained by incubation of tumor cells with Camptotecin.
Following the indicated treatments, apoptosis was measured by annexin V binding (detection kit I) or by a DNA fragmentation assay (Apo-Direct) as recommended by the manufacturer (PharMingen, San Diego, Calif.). Briefly, cells floating in the supernatant were combined with the adherent fraction, which was trypsinized and then washed. An aliquot of 5 E+05 cells was incubated with annexin V-APC and PI for 15 min at room temperature in the dark. Cells were immediately analyzed by flow cytometry. Viable cells exclude both annexin V-APC and PI. Early apoptotic cells are annexin V-APC-positive and PI-negative, whereas cells that are no longer viable due to apoptotic or necrotic cell death are positively stained by both annexin V and PI. Percentage of stained cells in each quadrant was quantified using FlowJo software (BD Biosciences, Franklin Lakes, N.J.).
The apoptotic assay based on DNA fragmentation was performed as follows. Treated cells (adherent and floating) were fixed in 70% icecold EtOH overnight. […] Cells were rinsed, incubated in RNase A/propidium iodide in the dark for 30 min at room temperature to stain total DNA, then analyzed by flowvcytometry. […]

[7] = system: KATO-III; experiment: IMAB362-induced ADCC on gastric cancer cells, also after chemotherapy pretreatment; type: cell-based, human; settings: KATO-III; up to 200 μg/ml, 24 hours, human PBMC E:T 40:1
Experimental: Peripheral blood mononuclear cells (PBMCs) including NK cells, monocytes, […] or other effector cells from healthy human donors were purified by Ficoll Hypaque density centrifugation. Washed effector cells were seeded in X-Vivo medium. Kato III cells which express CLDN18.2 endogenously and are of gastric origin were used as target cells in this setting. Target cells stably expressed luciferase, lucifer yellow, which is oxidized by viable cells only.

[8] = biological target: first extracellular domain (ECD1) of CLDN18.2 (Homo sapiens, UniProt P56856); experiment: Target binding of IMAB362 (background)
[9] = system: SW1990; experiment: IMAB362-mediated ADCC assay; type: cell-based, human; settings: at least 2 donors

IMAB362: chimeric IgG1 antibody directed against CLDN18.2, developed by Ganymed Pharmaceuticals AG
ADCC EC50 [1]: n.m.
ADCC Max. lysis [1]: n.m.
ADCC EC50 [2]: n.m.
ADCC Max. lysis [2]: 0-1.5%
growth inhibition compared to high CLDN18.2 expressing xenograft tumors [3]: reduced
measured tumor markers ([4]; one patient, within 4 weeks after treatment): decreased significantly
tolerability in patients ([4]; single i.v. administration 33-1000 mg/m^2, observed 28 days): very well tolerated
ADCC EC50 [5]: n.m.
ADCC Max. lysis [5]: 0-4.5%
induction of apoptosis [6]: Apoptosis induced by cross-linking
maximum lysis rates (ADCC) [7]: 80-100%
recognition of ECD1 of CLDN18.2 [8]: high affinity and specificity
ADCC EC50 [9]: n.m.
ADCC Max. lysis [9]: n.m.
